Two compounds from patent US20180203025A1, “HDL THERAPY MARKERS” (Cerenis Therapeutics Holding SA, priority 2014, published 2018) can be followed below.

Experiment [1] has as its system ABCA1 mRNA in mouse macrophages (J774). The experiment in a line: ABCA1 gene expression (real-time PCR) in J774 macrophages. Format: cell-based. Here is the method: Use the same amount of cDNA for all samples (4 μl of 20 μL RT reaction on 0.5 or 1 μg RNA). For each sample (to be run in triplicate), sample the following into a nuclease-free 1.5-mL microcentrifuge tube (add the volume for 2 samples more to calculate the final volume of PCR reaction mix): 2× TaqMan® Gene Expression Master Mix: 10 μl; 20× TaqMan® Gene Expression Assay: 1 μl; Nuclease free H2O: 5 μl. Cap the tube and invert it several times to mix the reaction components. Centrifuge the tube briefly.
J774 were seeded on 6× well plates (300,000 cells/well) and loaded with oxidized-LDL without the use of ^3H-cholesterol. […] Gene expression was assayed using the protocols described in Sections 8.3.2 (RNA extraction); 8.3.4 (reverse transcription), and 8.3.5 (qPCR). ABCA1 gene expression was determined with Taqman probe Mm00442646.m1 according to the manufacturer's protocol. The reference gene used is HPRT1 (Taqman probe: Mm00446968.m1).
(§1) J774 were seeded on 6 well plates (300,000 cells/well) and loaded with oxidized-LDL. […] Gene expression was assayed using the protocols described in Sections 8.3.2 (RNA extraction); 8.3.4 (reverse transcription), and 8.3.5 (qPCR). SR-BI gene (Taqman probe Mm00450234.m1), ABCG1 (Taqman probe Mm00437390.m1), SREBP1 (Taqman probe Mm01138344.m1) and ABCA1 (Taqman probe Mm00442646.m1) expression were determined according to the manufacturer's protocol. The reference gene used is HPRT1 (Taqman probe: Mm00446968.m1).
This study examined the kinetics of decreasing the mRNA level of ABCA1 in J774 macrophages. J774 were seeded on 6 well plates (300,000 cells/well) and loaded with oxidized-LDL. […] Gene expression was assayed using the protocols described in Sections 8.3.2 (RNA extraction); 8.3.4 (reverse transcription), and 8.3.5 (qPCR). ABCA1 (Taqman probe Mm00442646.m1) expression was determined according to the manufacturer's protocol. The reference gene used is HPRT1 (Taqman probe: Mm00446968.m1).
(§2) J774 were seeded on 6 well plates (300,000 cells/well) and loaded with oxidized-LDL. […] Gene expression was assayed using the protocols described in Sections 8.3.2 (RNA extraction); 8.3.4 (reverse transcription), and 8.3.5 (qPCR). ABCG1 (Taqman probe Mm00437390.m1) and ABCA1 (Taqman probe Mm00442646.m1) expression were determined according to the manufacturer's protocol. The reference gene used is HPRT1 (Taqman probe: Mm00446968.m1).
as §2
(§3) J774 were seeded on 6 well plates (600,000 cells/well) in DMEM 10% FCS. […] Medium was removed and the macrophages were washed with DMEM. […] Gene expression was assayed using the protocols described in Sections 8.3.2 (RNA extraction); 8.3.4 (reverse transcription), and 8.3.5 (qPCR). ABCG1 (Taqman probe Mm00437390.m1), ABCA1 (Taqman probe Mm00442646.m1) and SR-BI (Taqman probe Mm00450234.m1) expression were determined according to the manufacturer's protocol. The reference gene used is HPRT1 (Taqman probe: Mm00446968.m1).
(§4) J774 were seeded on 6 well plates (300,000 cells/well) in DMEM 2.5% FCS. […] The next day, medium was replaced by fresh DMEM supplemented with or without ApoA-I (25 or 250 μg/mL) to initiate ApoA-I cholesterol efflux for 2 hours. The experiment was stopped at different time points: 1) J774 stopped before addition of ApoA-I, 2) J774+DMEM (passive efflux for 2 hours), 3) J774+ApoA-I (25 μg/mL) for 2 hours and 4) J774+ApoA-I (250 μg/mL) for 2 hours. The RNA was extracted with the RiboPure™ kit according to the manufacturer's protocol.
Background: Quantitative PCR measures a nucleic acid by following its amplification.

Experiment [2] deals with ABCG1 mRNA in mouse macrophages (J774). As to the kind of experiment: ABCG1 gene expression (real-time PCR) in J774 macrophages. Format: cell-based. How it is done:
J774 were seeded on 6 well plates (300,000 cells/well) and loaded with oxidized-LDL without the use of ^3H-cholesterol. […] Gene expression was assayed using the protocols described in Sections 8.3.2 (RNA extraction); 8.3.4 (reverse transcription), and 8.3.5 (qPCR). ABCG1 gene expression was determined with Taqman probe Mm00437390.m1 according to the manufacturer's protocol. The reference gene used is HPRT1 (Taqman probe: Mm00446968.m1).
as §1, §2, §2, §3
as §4, with “protocol. Gene expression was assayed using the protocols described in Sections 8.3.2 (RNA extraction); 8.3.4 (reverse transcription), and 8.3.5 (qPCR). ABCA1 (Taqman probe Mm00442646.m1), ABCG1 (Taqman probe Mm00437390.m1), and SR-BI (Taqman probe Mm00450234.m1) expression were determined according to the manufacturer's protocol. The reference gene used is HPRT1 (Taqman probe: Mm00446968.m1).” for “protocol.”
This study examined the effect of HDL2 on ABCA1, ABCG1 and SR-BI mRNA levels in mouse macrophages. […] J774 were seeded on 6 well plates (300,000 cells/well) and loaded with oxidized-LDL. HDL2 (from 2.5 to 1000 μg/mL) were added for 6 hours on the macrophages and the RNA were extracted with the RiboPure™ kit according to the manufacturer's protocol. Gene expression was assayed using the protocols described in Sections 8.3.2 (RNA extraction); 8.3.4 (reverse transcription), and 8.3.5 (qPCR). ABCA1 (Taqman probe Mm00442646.m1), ABCG1 (Taqman probe Mm00437390.m1) and SR-BI (Taqman probe Mm00450234.m1) gene expression were determined according to the manufacturer protocols.

Setting [3] is: Study O, 0.03 to 30 mM, 6 hours.
Setting [4] is: Study G, 250 μg/mL, 6 hours, without cAMP.
Where [5] appears, read: Study G, overnight cAMP 300 μM, then 250 μg/mL 6 hours.
Setting [6] is: Study I, 6 hours, presence or absence of cAMP.
[7] abbreviates: Study J, 24 hours treatment, 250 μg/mL.
Where [8] appears, read: Study J, after 24 hours at 250 μg/mL.

For the compound `OC[C@H]1O[C@@H]2O[C@H]3[C@H](O)[C@@H](O)[C@@H](O[C@H]4[C@H](O)[C@@H](O)[C@@H](O[C@H]5[C@H](O)[C@@H](O)[C@@H](O[C@H]6[C@H](O)[C@@H](O)[C@@H](O[C@H]7[C@H](O)[C@@H](O)[C@@H](O[C@H]8[C@H](O)[C@@H](O)[C@@H](O[C@H]1[C@H](O)[C@H]2O)O[C@@H]8CO)O[C@@H]7CO)O[C@@H]6CO)O[C@@H]5CO)O[C@@H]4CO)O[C@@H]3CO` [β-cyclodextrin, reference compound], in experiment [1] (setting [3]), the “ABCA1 mRNA level” value is recorded as “dose-dependent decrease”. Moreover, the “ABCG1 mRNA level” value in experiment [2] (setting [3]) is reported as “dose-dependent decrease”.

“CER-001: engineered recombinant human apolipoprotein A-I HDL with sphingomyelin and DPPG; protein-to-phospholipid ratio 1:2.7, 97% Sph and 3% DPPG”: the “ABCA1 mRNA expression” value in experiment [1] (Study A, oxidized-LDL loaded, 25, 250 and 1000 μg/mL, 6 hours) was “decreased the ABCA1 mRNA at all the doses”. Also, the “dose for diminishing half of the ABCA1 level” value in experiment [1] (Study E, 6 hours) is on record as “around 7.5 μg/mL”. For the same compound, the “time to decrease half of the ABCA1 mRNA level” value in experiment [1] (Study F, 25 or 250 μg/mL) was determined as 4 h. Also, the “ABCA1 mRNA level” value is given as “decreased” in experiment [1] (setting [4]); “decrease” in experiment [1] (setting [7]); “strongly decreased the ABCA1 mRNA level” in experiment [1] (Study L, overnight pre-incubation at 250 μg/mL). The “ABCA1 mRNA level (RQ)” value in experiment [1] (setting [5]) was 1. Moreover, the “effect of cAMP activation on CER-001 dose decreasing ABCA1” value in experiment [1] (Study I) is “did not change the sufficient dose of CER-001”. Also, the “dose of maximum decrease of ABCA1 mRNA level” value in experiment [1] (Study I, 6 hours) is “around 15 μg/mL”. Moreover, the “doses at which decrease of ABCA1 mRNA level was observed” value in experiment [1] (setting [6]) lay in the range of 4 to 6 µg/mL. The “time for ABCA1 mRNA level to return to baseline after removal” value in experiment [1] (setting [8]) was “more than 8 hours”. In experiment [2] (Study B, oxidized-LDL loaded, 25, 250 and 1000 μg/mL, 6 hours), the “ABCG1 mRNA expression” value is “decreased the ABCG1 mRNA at all the doses”. In addition, the “ABCG1 mRNA level” value in experiment [2] (setting [4]) is recorded as “decreased”; in experiment [2] (setting [7]), “decrease”. In experiment [2] (setting [5]), the “ABCG1 mRNA level (RQ)” value is 1. The “dose of maximum decrease of ABCG1 mRNA level” value in experiment [2] (Study I, 6 hours) was “around 15 μg/mL”. The “doses at which decrease of ABCG1 mRNA level was observed” value in experiment [2] (setting [6]) fell in the range of 4 to 6 µg/mL. Besides, in experiment [2] (setting [8]), the “time for ABCG1 mRNA level to return to baseline after removal” value is 8 h.
